These results are taken from article PMC2873968, “Novel protein kinase D inhibitors cause potent arrest in prostate cancer cell growth and motility” (BMC Chemical Biology, 2010).

The target of one test is MET (Homo sapiens, UniProt P08581). Briefly: Kinase profiling, single-dose in vitro kinase assay (Caliper Life Sciences). As to conditions: read-out: Average % Inhibition MET.
The subject of test [1] is protein kinase B (AKT/PKB). The arrangement: method as in PMID 18829454. As to conditions: previously reported; cited from earlier work.
The target in another test is SGK1 (Homo sapiens, UniProt O00141). Briefly: Kinase profiling, single-dose in vitro kinase assay (Caliper Life Sciences). As to conditions: read-out: Average % Inhibition SGK1.
A further test has as its target PKCγ (Homo sapiens, UniProt P05129). Described as above. The note with it: read-out: Average % Inhibition PKCγ.
The next test addresses c-Raf (Homo sapiens, UniProt P04049). The test is described as above. The note with it: read-out: Average % Inhibition c-Raf.
The target in a further test is PKG1β (Homo sapiens, UniProt Q13976). Described as above. The note with it: read-out: Average % Inhibition PKG1β.
For another test, the target named is Erk2 (Homo sapiens, UniProt P28482). The test is described as above. The note with it: read-out: Average % Inhibition Erk2.
A further test deals with PKA (Homo sapiens, UniProt P17612). The test is described as above. The note with it: read-out: Average % Inhibition PKA.
A further test concerns the target AKT1 (Homo sapiens, UniProt P31749). The description is as above. As to conditions: read-out: Average % Inhibition AKT1.
The target of the next test is SYK (Homo sapiens, UniProt P43405). The description is as above. As to conditions: read-out: Average % Inhibition SYK.
For a further test, the target named is CHK1 (Homo sapiens, UniProt O14757). Described as above. The note with it: read-out: Average % Inhibition CHK1.
For a further test, the target named is Ikkb (Homo sapiens, UniProt O14920). Described as above. The note with it: read-out: Average % Inhibition Ikkb.
In another test the target is PAK2 (Homo sapiens, UniProt Q13177). The description is as above. The note with it: read-out: Average % Inhibition PAK2.
The next test has as its system CAK. The arrangement: method as in PMID 18829454. The note with it: previously reported; cited from earlier work.
A further test addresses ABL (Homo sapiens, UniProt P00519). The test is described as follows: Kinase profiling, single-dose in vitro kinase assay (Caliper Life Sciences). The note with it: read-out: Average % Inhibition ABL.
In a further test the target is T1, PKCα (Homo sapiens, UniProt P17252).
T1 construct: purchased Cell Signaling Technology and Calbiochem
Further details: method as in PMID 18829454. As to conditions: previously reported; cited from earlier work.

The target in another test is EGFR (Homo sapiens, UniProt P00533). Briefly: Kinase profiling, single-dose in vitro kinase assay (Caliper Life Sciences). As to conditions: read-out: Average % Inhibition EGFR.
EGFR, sequence (P00533 25-1210): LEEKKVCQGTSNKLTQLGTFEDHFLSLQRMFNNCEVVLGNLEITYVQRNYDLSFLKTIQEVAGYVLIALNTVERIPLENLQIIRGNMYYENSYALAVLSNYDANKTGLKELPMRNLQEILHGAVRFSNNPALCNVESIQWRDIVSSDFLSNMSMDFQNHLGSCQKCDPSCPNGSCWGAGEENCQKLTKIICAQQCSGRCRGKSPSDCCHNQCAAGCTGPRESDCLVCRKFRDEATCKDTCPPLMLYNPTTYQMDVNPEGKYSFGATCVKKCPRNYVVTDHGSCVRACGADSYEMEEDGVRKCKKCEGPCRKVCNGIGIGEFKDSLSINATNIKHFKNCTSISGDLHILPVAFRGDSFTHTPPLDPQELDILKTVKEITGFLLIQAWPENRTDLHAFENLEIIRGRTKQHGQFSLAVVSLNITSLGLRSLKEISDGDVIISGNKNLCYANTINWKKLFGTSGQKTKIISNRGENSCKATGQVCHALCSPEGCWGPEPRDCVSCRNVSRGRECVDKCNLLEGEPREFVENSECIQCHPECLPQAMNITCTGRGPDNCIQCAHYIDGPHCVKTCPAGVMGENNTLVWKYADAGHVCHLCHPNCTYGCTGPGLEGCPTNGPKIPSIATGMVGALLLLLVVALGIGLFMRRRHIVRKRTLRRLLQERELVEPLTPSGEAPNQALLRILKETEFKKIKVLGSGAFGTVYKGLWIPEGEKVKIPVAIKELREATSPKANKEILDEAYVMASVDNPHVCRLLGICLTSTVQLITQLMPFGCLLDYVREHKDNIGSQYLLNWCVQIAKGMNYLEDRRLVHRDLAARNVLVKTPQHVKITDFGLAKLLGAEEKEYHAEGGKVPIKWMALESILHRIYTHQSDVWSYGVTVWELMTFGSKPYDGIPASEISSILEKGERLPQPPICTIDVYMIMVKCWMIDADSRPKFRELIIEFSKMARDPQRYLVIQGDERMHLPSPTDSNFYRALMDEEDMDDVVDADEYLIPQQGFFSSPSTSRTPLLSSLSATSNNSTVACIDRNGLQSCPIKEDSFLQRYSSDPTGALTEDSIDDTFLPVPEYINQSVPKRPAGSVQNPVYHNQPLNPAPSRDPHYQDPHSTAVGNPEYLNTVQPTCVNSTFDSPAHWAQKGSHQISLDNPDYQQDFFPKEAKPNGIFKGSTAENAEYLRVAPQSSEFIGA
A further test has as its system AMPK. The description is as above. The note with it: 10 μM.
The target of test [2] is T2, PKCδ (Homo sapiens, UniProt Q05655).
T2 construct: purchased Enzo Life Sciences
T2 sequence (Q05655 whole entry): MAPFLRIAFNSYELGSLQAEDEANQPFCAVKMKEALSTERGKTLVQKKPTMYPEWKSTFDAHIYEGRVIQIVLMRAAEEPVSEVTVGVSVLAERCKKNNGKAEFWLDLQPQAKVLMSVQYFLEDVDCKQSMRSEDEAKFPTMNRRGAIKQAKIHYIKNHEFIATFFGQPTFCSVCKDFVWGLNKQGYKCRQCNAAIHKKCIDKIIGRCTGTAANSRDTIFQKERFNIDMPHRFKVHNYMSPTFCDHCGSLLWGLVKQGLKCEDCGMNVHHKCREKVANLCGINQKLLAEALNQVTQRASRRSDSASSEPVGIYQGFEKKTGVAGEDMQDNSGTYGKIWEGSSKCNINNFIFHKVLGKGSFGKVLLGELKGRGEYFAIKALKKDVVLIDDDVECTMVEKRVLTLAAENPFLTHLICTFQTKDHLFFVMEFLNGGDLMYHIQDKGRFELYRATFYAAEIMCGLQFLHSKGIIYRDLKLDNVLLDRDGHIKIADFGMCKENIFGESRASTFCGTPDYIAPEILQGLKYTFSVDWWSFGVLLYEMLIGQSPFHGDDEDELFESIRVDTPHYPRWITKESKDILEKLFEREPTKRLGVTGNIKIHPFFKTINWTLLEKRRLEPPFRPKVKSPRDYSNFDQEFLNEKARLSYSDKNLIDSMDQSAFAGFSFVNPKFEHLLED
Further details: method as in PMID 18829454. As to conditions: previously reported; cited from earlier work.

The target of the next test is PIM2 (Homo sapiens, UniProt Q9P1W9). Briefly: Kinase profiling, single-dose in vitro kinase assay (Caliper Life Sciences). The note with it: read-out: Average % Inhibition PIM2.
The target of a further test is T3, PKCβI (Homo sapiens, UniProt P05771).
T3 construct: purchased Cell Signaling Technology
Further details: method as in PMID 18829454. The note with it: previously reported; cited from earlier work.

A further test concerns the target ErbB4 (Homo sapiens, UniProt Q15303). The test is described as follows: Kinase profiling, single-dose in vitro kinase assay (Caliper Life Sciences). As to conditions: read-out: Average % Inhibition ErbB4.
The next test has as its target FLT3 (Homo sapiens, UniProt P36888). Described as above. The note with it: read-out: Average % Inhibition FLT3.
A further test concerns the target PKG1α (Homo sapiens, UniProt Q13976). The test is described as above. The note with it: read-out: Average % Inhibition PKG1α.
The target in another test is IRAK4 (Homo sapiens, UniProt Q9NWZ3). The description is as above. The note with it: read-out: Average % Inhibition IRAK4.
The target in a further test is PKCη (Homo sapiens, UniProt P24723). The test is described as above. The note with it: read-out: Average % Inhibition PKCη.
PKCη, sequence (P24723 whole entry): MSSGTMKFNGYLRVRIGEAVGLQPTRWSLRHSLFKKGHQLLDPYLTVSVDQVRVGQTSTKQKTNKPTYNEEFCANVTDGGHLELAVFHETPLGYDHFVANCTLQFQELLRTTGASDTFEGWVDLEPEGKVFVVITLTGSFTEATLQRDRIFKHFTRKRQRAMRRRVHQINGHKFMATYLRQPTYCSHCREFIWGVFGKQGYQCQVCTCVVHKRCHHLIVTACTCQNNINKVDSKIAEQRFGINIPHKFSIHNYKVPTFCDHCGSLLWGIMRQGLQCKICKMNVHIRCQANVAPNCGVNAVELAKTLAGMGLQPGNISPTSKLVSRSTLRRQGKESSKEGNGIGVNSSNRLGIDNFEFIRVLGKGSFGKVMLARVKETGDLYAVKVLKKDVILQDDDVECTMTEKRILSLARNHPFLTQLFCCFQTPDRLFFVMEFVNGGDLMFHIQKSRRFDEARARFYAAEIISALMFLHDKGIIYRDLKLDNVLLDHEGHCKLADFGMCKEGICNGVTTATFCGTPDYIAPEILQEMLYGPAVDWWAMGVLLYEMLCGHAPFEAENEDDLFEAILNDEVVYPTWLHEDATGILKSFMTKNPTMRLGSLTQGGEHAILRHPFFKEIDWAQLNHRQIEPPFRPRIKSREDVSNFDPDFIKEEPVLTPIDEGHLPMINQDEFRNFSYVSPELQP
In the next test the test system is PC3 cells. Briefly: Cell proliferation assay (cell counts, trypan blue). The note with it: 10 μM, cell counts over six days. The test is classed as cell-based. From the text:
Cells were allowed to attach overnight.

For test [3], the target named is T2, PKCδ. The test is described as follows: In vitro radiometric PKC kinase assay. It is filed as biochemical. How it is done: The PKC in vitro kinase assays were performed as described previously.
To determine whether the novel analogs retained this specificity, we tested the compounds against their ability to inhibit PKCα, -βI, -δ, and CAMKIIα in in vitro radiometric kinase activity assays.
Inhibition of PKCα (A), PKCβI (B), PKCδ (C), or CAMKIIα (D) by each of the 5 analogs was determined at 100 nM, 1 μM, and 10 μM concentrations. […] Data are the mean ± S.E.M. of three independent experiments. Statistical significance was determined using the unpaired t-test. ns, not statistically significant; *, p < 0.05; **, p < 0.01; ***, p < 0.001.

ErbB4, sequence (Q15303 26-1308): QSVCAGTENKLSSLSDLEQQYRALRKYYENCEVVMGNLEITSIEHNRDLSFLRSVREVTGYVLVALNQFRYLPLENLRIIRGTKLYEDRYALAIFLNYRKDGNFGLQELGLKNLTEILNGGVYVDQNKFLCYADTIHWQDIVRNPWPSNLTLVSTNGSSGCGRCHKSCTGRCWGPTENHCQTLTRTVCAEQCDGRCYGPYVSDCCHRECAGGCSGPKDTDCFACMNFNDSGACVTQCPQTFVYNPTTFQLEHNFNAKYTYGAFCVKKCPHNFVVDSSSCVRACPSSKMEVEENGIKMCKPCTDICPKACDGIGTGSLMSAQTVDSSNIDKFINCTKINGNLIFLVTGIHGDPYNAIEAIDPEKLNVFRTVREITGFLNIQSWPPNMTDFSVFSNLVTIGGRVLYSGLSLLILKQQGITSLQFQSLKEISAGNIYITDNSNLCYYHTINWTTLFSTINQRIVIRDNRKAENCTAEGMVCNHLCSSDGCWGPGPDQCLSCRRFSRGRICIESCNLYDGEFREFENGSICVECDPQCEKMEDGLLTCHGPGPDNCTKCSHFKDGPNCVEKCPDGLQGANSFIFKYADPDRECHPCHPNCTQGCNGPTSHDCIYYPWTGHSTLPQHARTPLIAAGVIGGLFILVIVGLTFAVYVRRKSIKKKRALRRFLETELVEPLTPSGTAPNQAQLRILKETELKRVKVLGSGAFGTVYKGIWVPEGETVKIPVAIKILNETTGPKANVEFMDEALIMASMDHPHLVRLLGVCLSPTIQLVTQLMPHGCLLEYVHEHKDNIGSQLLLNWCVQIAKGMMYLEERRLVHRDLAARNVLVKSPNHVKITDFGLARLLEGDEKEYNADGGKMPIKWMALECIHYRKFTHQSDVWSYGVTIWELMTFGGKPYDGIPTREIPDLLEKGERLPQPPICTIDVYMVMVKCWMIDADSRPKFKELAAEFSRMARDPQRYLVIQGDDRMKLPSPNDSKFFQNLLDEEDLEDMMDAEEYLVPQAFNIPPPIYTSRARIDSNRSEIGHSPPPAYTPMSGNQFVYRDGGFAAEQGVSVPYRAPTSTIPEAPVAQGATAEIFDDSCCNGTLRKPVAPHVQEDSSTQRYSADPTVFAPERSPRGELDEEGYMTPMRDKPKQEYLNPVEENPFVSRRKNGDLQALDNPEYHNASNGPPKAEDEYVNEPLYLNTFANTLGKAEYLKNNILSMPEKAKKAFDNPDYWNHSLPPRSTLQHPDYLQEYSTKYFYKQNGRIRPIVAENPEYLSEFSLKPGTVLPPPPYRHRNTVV
AKT1, sequence (P31749 whole entry): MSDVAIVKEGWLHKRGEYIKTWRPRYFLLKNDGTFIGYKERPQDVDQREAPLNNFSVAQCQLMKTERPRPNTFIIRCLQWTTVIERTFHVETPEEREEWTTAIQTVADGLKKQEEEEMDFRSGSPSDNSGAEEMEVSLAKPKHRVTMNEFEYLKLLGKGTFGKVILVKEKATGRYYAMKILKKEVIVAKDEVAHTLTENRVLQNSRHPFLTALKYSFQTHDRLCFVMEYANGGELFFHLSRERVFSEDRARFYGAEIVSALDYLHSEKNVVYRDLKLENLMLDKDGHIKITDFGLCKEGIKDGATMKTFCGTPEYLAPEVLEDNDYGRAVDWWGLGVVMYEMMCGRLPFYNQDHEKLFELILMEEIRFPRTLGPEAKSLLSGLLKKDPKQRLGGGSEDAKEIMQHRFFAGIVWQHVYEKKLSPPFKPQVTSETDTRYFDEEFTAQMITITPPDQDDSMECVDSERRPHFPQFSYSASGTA

Turning to `O=C1NCCCc2c1oc1ccc(O)cc21` [CID755673, 7-Hydroxy-2,3,4,5-tetrahydro-[1]benzoxolo[2,3-c]azepin-1-one], the inhibition at 10 µM was found to be 18% on MET; 9% on SGK1; 30% on PKCγ; 2% at c-Raf; 11% at PKG1β; 31% on Erk2. Moreover, the inhibition at 10 µM was 6% on PKA; 3% on AKT1; -8% at SYK; 7% on CHK1; 49% at Ikkb; 3% on PAK2. The inhibition at 10 µM is 8% at ABL; 11% on EGFR; 6% at PIM2; 1% on ErbB4; 14% on FLT3; 13% on PKG1α. The inhibition at 10 µM turned out to be 0% on IRAK4 and 40% on PKCη. In addition, the “inhibition of protein kinase B (AKT/PKB)” value in test [1] is recorded as “did not inhibit”. For the same molecule, in the test on CAK, the “inhibition of CAK” value is “did not inhibit”. Further, the “inhibition of PKCα” value at PKCα is on record as “did not inhibit”. Further, the “Average % Inhibition AMPK” value in the test with AMPK is 35%. Besides, on PKCδ [2], the “inhibition of PKCδ” value is on record as “did not inhibit”. Besides, at PKCβI, the “inhibition of PKCβI” value is “did not inhibit”.
With `O=C1NCCSc2c1sc1ccc(O)cc21` [kb-NB142-70], in the test on PC3 cells, the “effect on cell proliferation” value is “most potent among the compounds”.
As for `O=C1NCCSc2c1sc1ccc(O)c(I)c21` [kb-NB165-31], the “inhibition of PKCδ (in words)” value against PKCδ [3] is reported as “significant inhibitory activity”. On PKCδ [3] (10 μM, read-out: inhibitory activity toward PKCδ), the inhibition at 10 µM is roughly 50%.
